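Test compounds were applied to cells in 96-well plates for 48 hours at 5 doses. GI50 is the concentration that inhibits growth by half.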 Calls of active or inactive are those of the source. Rule as the data show it: active = GI50 up to about 1.1 µM and inactive = higher. Residues, ends and D or L forms follow the SMILES beside them.
Experiments:
Experiment in all cases: NCI-60 cell line screen, 48 h
ACHN = test system: ACHN
BT-549 = test system: BT-549
CAKI-1 = test system: CAKI-1
CCRF-CEM = test system: CCRF-CEM
HCT-116 = test system: HCT-116
HOP-92 = test system: HOP-92
K562 = test system: K562
LOX IMVI = test system: LOX IMVI
MDA-MB-231 = test system: MDA-MB-231
MOLT-4 = test system: MOLT-4
Malme-3M = test system: Malme-3M
OVCAR-4 = test system: OVCAR-4
OVCAR-5 = test system: OVCAR-5
SF-268 = test system: SF-268
SF-295 = test system: SF-295
SK-MEL-2 = test system: SK-MEL-2
SNB-19 = test system: SNB-19
SR = test system: SR
TK-10 = test system: TK-10
U-251 = test system: U-251

Measured: GI50

CC(=O)n1nc(-c2ccccc2)n(/N=C/c2ccc([N+](=O)[O-])cc2)c1=O
inactive: ACHN > 100 µM | BT-549 > 100 µM | CAKI-1 > 100 µM | CCRF-CEM > 100 µM | HCT-116 > 100 µM | HOP-92 59.3 µM | K562 > 100 µM | LOX IMVI > 100 µM | MDA-MB-231 35 µM | MOLT-4 > 100 µM | Malme-3M 90.8 µM | OVCAR-4 41.3 µM | OVCAR-5 > 100 µM | SF-268 43.5 µM | SF-295 > 100 µM | SK-MEL-2 > 100 µM | SNB-19 > 100 µM | SR > 100 µM | TK-10 > 100 µM | U-251 > 100 µM

O=C1C(Cl)=CC2(C=C1Cl)CCNC1=C2C(=O)c2nc[nH]c2C1=O
inactive: ACHN > 100 µM | BT-549 26.3 µM | CAKI-1 64.4 µM | CCRF-CEM 30.8 µM | HCT-116 26 µM | HOP-92 42.4 µM | K562 29.4 µM | LOX IMVI 20 µM | MDA-MB-231 35.6 µM | MOLT-4 26.9 µM | Malme-3M 24.3 µM | OVCAR-4 58.7 µM | OVCAR-5 > 100 µM | SF-268 54.6 µM | SF-295 > 100 µM | SK-MEL-2 17.3 µM | SNB-19 32.3 µM | SR 2.12 µM | TK-10 > 100 µM | U-251 26.5 µM

CCC(C)C(NC(=O)C(CCCCN)NC(=O)C(NC(=O)C(CCC(N)=O)NC(=O)C(N)CCCNC(=N)N)C(C)CC)C(=O)NC(Cc1c[nH]c2ccccc12)C(=O)NC(Cc1ccccc1)C(=O)NC(CCC(N)=O)C(=O)NC(CC(N)=O)C(=O)NC(CCCNC(=N)N)C(=O)NC(CCCNC(=N)N)C(=O)NC(CCSC)C(=O)NC(CCCCN)C(=O)NC(Cc1c[nH]c2ccccc12)C(=O)NC(CCCCN)C(=O)NC(CCCCN)C(=O)N1CCCC1C(=O)NC(C)C(=O)NC(CCCCN)C(=O)NC(CCCNC(=N)N)C(=O)NC(CCCCN)C(=O)NC(CC(C)C)C(=O)NC(Cc1ccccc1)C(=O)NCC(=O)O (stereo not given) (H-RQIKIWFQNRRMKWKKPAKRKLFG-OH; configuration not given here)
inactive: ACHN > 25 µM | BT-549 > 25 µM | CAKI-1 > 25 µM | CCRF-CEM 12.4 µM | HCT-116 16.3 µM | HOP-92 9.64 µM | K562 > 25 µM | LOX IMVI > 25 µM | MDA-MB-231 10.5 µM | MOLT-4 > 25 µM | Malme-3M 6.75 µM | OVCAR-4 > 25 µM | OVCAR-5 > 25 µM | SF-268 15.9 µM | SF-295 > 25 µM | SK-MEL-2 > 25 µM | SNB-19 > 25 µM | SR > 25 µM | TK-10 > 25 µM | U-251 17 µM

CN(C)/C=N/c1c2c(nc3ccccc13)CCCC2
inactive: ACHN > 100 µM | BT-549 > 100 µM | CAKI-1 > 100 µM | CCRF-CEM 44 µM | HCT-116 39.1 µM | HOP-92 33.1 µM | K562 32 µM | LOX IMVI 91 µM | MDA-MB-231 > 100 µM | MOLT-4 59.8 µM | Malme-3M > 100 µM | OVCAR-4 75.2 µM | OVCAR-5 > 100 µM | SF-268 > 100 µM | SF-295 41.5 µM | SK-MEL-2 > 100 µM | SNB-19 > 100 µM | SR 25.9 µM | TK-10 > 100 µM | U-251 > 100 µM
